Experimental data published in patent US9341618B2, “Method for evaluating or screening hair growth-regulating agent” (Kao Corporation, priority 2007, dated 2016).
Read-outs that look alike come from different tables or passages of the source.

Key:
hair follicles of a pig = conditions: DHT 10 ng/mL; for Hair elongation quantity (control regarded as 100%): 6th day of organ culture, William's E medium
Experimental: As a pig skin, a skin obtained from a crossbred pig with white hair which has been bred as a pork pig in Japan was used. The pig skin was cut into an appropriate size, the extra fat was cut away, and the resulting skin was soaked in a Hibiten solution (5% Hibiten solution (Sumitomo Pharmaceuticals) was diluted to 5 to 20 times with water) for 5 to 10 minutes under sterile conditions for sterilization and then washed several times with D-PBS.
Then hair follicles were isolated from the treated pig skin using forceps and scalpel (FEATHER No. 10) under a stereo microscope and collected in a medium.
According to the procedures (1), hair follicles of a pig were obtained from the dorsal region, lateral region, abdominal region, inguinal region, buttocks and shoulder of the pig. The isolated hair follicles were placed in a 24-well culture plate to give one hair follicle per well.
Incubation was carried out at 37° C. for 6 days in an incubator containing 5% of CO2.
The medium was exchanged every two days or every three days, and a hair elongation quantity after 6 days incubation was measured and compared with that of control.
For the control, William's E medium not containing DHT was used, and a hair elongation quantity after the organ culture was regarded as 100%.
Incidentally, a hair elongation quantity was measured, regarding the date on which incubation was commenced as the 0th day, by taking stereo microscopic images with a CCD camera (pixera model No. PVC 100C) at the 0th day and the 6th day, and measuring the change of the length from the base of hairbulb to the tip of hair shaft based on the images.

[1] = test system: hair follicles at the buttocks of a pig; assay: Organ culture of pig buttocks hair follicles in RPMI1640 medium (hair elongation); format: cell-based; conditions: TGF-β2 10 ng/mL, 8th day of organ culture in RPMI1640 medium
Experimental: The hair follicles were incubated at 37° C. for 8 days in an incubator containing 5% of CO2.

[2] = test system: hair follicles of a human; conditions: literature; cited from earlier work
[3] = abdominal region hair follicles

Molecule: C[C@]12CCC(=O)C[C@@H]1CC[C@@H]1[C@@H]2CC[C@]2(C)[C@@H](O)CC[C@@H]12 [DHT, 5α-dihydrotestosterone]
- Growth of hair follicles, effect in words (hair follicles of a pig; [3]): suppressed
- Hair elongation quantity (control regarded as 100%) (hair follicles of a pig; [3]): 75%
- Hair elongation quantity (control regarded as 100%) (hair follicles of a pig; buttocks hair follicles): 102%
- Growth of hair follicles, effect in words (hair follicles of a pig; dorsal region hair follicles): promoted
- Hair elongation quantity (control regarded as 100%) (hair follicles of a pig; dorsal region hair follicles): 179%
- Hair elongation quantity (control regarded as 100%) (hair follicles of a pig; inguinal region hair follicles): 102%
- Hair elongation quantity (control regarded as 100%) (hair follicles of a pig; lateral region hair follicles): 108%
- Hair elongation quantity (control regarded as 100%) (hair follicles of a pig; shoulder hair follicles): 99%

B1: TGF-β2: TGF-β2 (R & D Systems, Inc., item No. 102-B2-001/CF), confirmed to suppress hair growth in human hair follicle organ culture (protein, UniProt P61812 303-414, looked up)
Transforming growth factor …: ALDAAYCFRNVQDNCCLRPLYIDFKRDLGWKWIHEPKGYNANFCAGACPYLWSSDTQHSRVLSLYNTINPEASASPCCVSQDLEPLTILYYIGKTPKIEQLSNMIVKSCKCS
- Hair elongation rate (%) when that of control is regarded as 100% [1]: 59%
- Effect on hair growth in organ culture [2]: confirmed to suppress hair growth
